Here are results for 6 molecules from patent US20080027087A1 (AMPLA Pharmaceuticals, Inc., priority 2006, published 2008).

The target in assay [1] is T1, CB1 receptor (Homo sapiens, UniProt P21554). Kind of assay: functional activity versus the CB1 receptor.
Assay [2] deals with T1, CB1 receptor. As to the kind of experiment: competition ligand binding assay, CHO-k1 cell membranes. More on the design: expressed in transfected cells; host or cells: CHO-k1 cell membranes. As to conditions: 0.75 nM radioligand, FIG. 6. Here is the method:
(§1) Competition ligand binding assays were performed with the non-selective cannabinoid receptor agonist ([^3H]CP 55,940) (0.75 nM) in the binding buffer containing 50 mM Tris-HCl, pH 7.4, 3 mM MgCl2, 1 mM EDTA, 0.2% BSA using CHO-k1 cell membranes stably expressing human CB1 receptors or mouse brain membrane preparations in 96-well plate format. The receptor membranes (10 μg/well) were pre-incubated with different concentrations of tested compounds in the binding buffer at room temperature for 30 min prior to addition of 0.75 nM [^3H]CP 55,940 in a final volume of 100 μl. The binding was carried out at room temperature for another 2 h. To determine the non-specific binding, experiments were also performed in the presence of 10 μM unlabeled CP 55,940. Binding was terminated by addition of cold binding buffer and filtrated on Whatman GF/B glass-fiber filters using a sampling manifold. The filters were washed 6 times with cold binding buffer and air-dried overnight. The radioactivity was quantitated on a TopCounter (PerkinElmer) after adding scintillation fluid. Specific binding was defined as the difference between the binding in the presence and absence of 10 μM unlabeled CP 55, 940.

Assay [3] has as its target T1, CB1 receptor. As to the kind of experiment: [35S]GTPγS binding assay on CHO-k1 cell membranes. Set-up: expressed in transfected cells; host or cells: CHO-k1 cell membranes. Type of assay: biochemical. Here is the method: [^35S]GTPγS binding assays were performed with CHO-k1 cell membranes stably expressing human CB1 receptors in 96-well ScintiPlate (PerkinElmer). The membranes (12.5 μg/well) were preincubated with compound 7 in the binding buffer (50 mM Tris-HCl, pH 7.4, 100 mM NaCl, 3 mM MgCl2, 0.2 mM EDTA, 0.2% BSA and 10 μM GDP) at 30° C. for 30 min, then added various concentrations of agonists (WIN 55212-2 or CP 55,940) and [^35S]GTPγS (0.2 nM) in a final volume of 200 μl. Reactions were carried out at 30° C. for 60 min, followed by centrifugation of plate at […] for 15 min. After removing supernatant, the radioactivity was quantitated on a TopCounter.

For assay [4], the target named is T1, CB1 receptor. Kind of assay: dissociation kinetics assay with [3H]CP 55,940 on CHO-k1 cell membranes. More on the design: expressed in transfected cells; host or cells: CHO-k1 cell membranes. The class given is binding. To be noted: 0.75 nM [3H]CP 55,940, room temperature, FIG. 3. As for the experimental part: Dissociation kinetics assays were performed with the non-selective cannabinoid receptor agonist ([^3H]CP 55,940) (0.75 nM) in the binding buffer containing 50 mM Tris-HCl, pH 7.4, 3 mM MgCl2, 1 mM EDTA, 0.2% BSA using CHO-k1 cell membranes stably expressing human CB1 receptors in 96-well plate format. The CBI receptor membranes (10 μg/well) were incubated with 0.75 nM [^3H]CP 55,940 in 100 μl binding buffer at room temperature for 2 h. Dissociation was initiated with addition of 100 μl unlabeled CP 55,940 (10 μM) in binding buffer in the absence or presence of different concentrations of compounds (compound 7). Dissociation was carried out at room temperature for indicated time. To determine the non-specific binding, experiments were also performed in the presence of 10 μM unlabeled CP 55,940. Binding was terminated by addition of cold binding buffer and filtrated on Whatman GF/B glass-fiber filters using a sampling manifold. The filters were washed 6 times with cold binding buffer and air-dried overnight. The radioactivity was quantitated on a TopCounter (PerkinElmer) after adding scintillation fluid. Specific binding was defined as the difference between the binding in the presence and absence of 10 μM unlabeled CP 55,940.

The next assay deals with T2, CB2 receptor (Homo sapiens, UniProt P34972).
T2 construct: host or cells: CB2 receptor bearing cells (host not described)
As to the kind of experiment: Ca2+i response to 2-AG in CB2 receptor bearing cells, dose-response with or without compound. Type of assay: cell-based. As to conditions: 2-AG with or without compound, FIG. 2.

Assay [5] concerns the target T3, mouse CB1 (mouse brain membrane) (Mus musculus, UniProt P47746).
T3 construct: human CB1 receptors or mouse brain membrane preparations in 96-well plate format; from tissue; host or cells: mouse brain membrane preparations
Kind of assay: competition ligand binding assay, mouse brain membrane preparations. Here is the method:
as §1

The target of assay [6] is T4, Human Cannabinoid 1 (CB1) receptor (Homo sapiens, UniProt P21554).
T4 construct: expressed in transfected cells; host or cells: CHO cells stably expressing GqΔGi chimera
Kind of assay: Ca2+i response to 2-AG in CB1 cells (Indo-1, DSIS flow cytometry), dose-response with or without compound. Type of assay: cell-based. As to conditions: 2-AG with or without compound, FIG. 2. The text has this: cDNA for the G protein GqΔGi chimera was generated by PCR and inserted into the polylinker region of the pcDNA3/hygro+ vector (Invitrogen). Stable expression of GqΔGi chimera protein in CHO cell line was generated under hygromycin selection. Human Cannabinoid 1 (CB1) cDNA was inserted into the polylinker region of the pcDNA3.1/(+) vector (Invitrogen) and DNA was introduced into the GqΔGi/CHO cell line by Lipofectamine reagent (Invitrogen). […]
Cell line optimization was done by a proprietary method using our novel automated Direct Sample Injection System (DSIS, ‘Direct mixing and injection for high throughput fluidic systems’ Patent Application Number 20050249635) in conjunction with response. Intracellular Ca^2+ (Ca^2+i) levels were measured with Ca^2+ chelating fluorescent probes. […]
The probe-loaded CB1 and Control cell mixture was placed in the Cell Suspension System on the DSIS where they were continuously rocked to keep them in a suspended state. […] The DSIS software, NVS Sampler, recorded a timing file and the CyAn software, Summit, recorded a data file. These two files were then compiled and analyzed by our proprietary software, NVS Analyzer, to determine the percent of cells that responded to each concentration. The data was transferred to GraphPAD Prism for a non-linear regression curve fit that determined the EC50. […]
(A flow cytometer gives signals particle by particle.)

Assay [7] is described as follows: acute administration: wet mash intake, food intake and body weight in lean male C57BL/6J mice. The class given is in vivo. As to conditions: 10 mg/kg orally, one-way ANOVA.
A short description of assay [8]: body weight of diet-induced obese male C57BL/6J mice, repeated oral administration for 28 days. As to conditions: for reduction of body weight: 28 days dosing, diet-induced obese mice. Type of assay: in vivo. As for the experimental part:
Sibutramine, which is currently used clinically, and rimonabant, which has recently received regulatory approval for the management of obesity were used as reference compounds.
Sixty-five C57BL/6J mice (7-8 weeks of age) were ordered from Charles River, Margate, Kent. Mice were group housed in polypropylene cages with free access to a high fat diet (D12451 45% of Kcal derived from fat; Research Diets, N.J., USA) and tap water at all times. Animals were maintained at 21±4° C. and 55±20% humidity on a normal phase 12 h light-dark cycle (lights on 04:30 h)
Animals were exposed to the high fat diet for 16 weeks. During this time body weight was recorded weekly. At the end of 14 weeks animals were singly housed in polypropylene cages for a further two week period (weeks 14-16) and placed on reverse phase lighting (lights off for 8 h from 9.30-17.30 h) during which time the room was illuminated by red light. Animals were dosed with vehicle orally throughout the baseline period. Body weight and food and water intake was recorded daily. Towards the end of the baseline period animals were allocated to one of seven groups (see table 2 below). Upon completion of the baseline period, mice were dosed for 28 days with vehicle or test drug as described below.
Body weight and food and water intake were recorded daily. Following drug administration the animals were examined and any overt behaviour was recorded. For all dosing, the morning session was timed such that approximately half the mice were dosed at the time of lights out (09:30).
The test compounds were dissolved in 1% methylcellulose. […] Drug doses were expressed as free base.
Resulting body weights, food intake and water intake were expressed as mean values ±SEM, and the SEMs are calculated from residuals of the statistical model. Body weight data was analysed by ANCOVA with Day 1 as covariate followed by appropriate comparisons (two-tailed) to determine significant differences from the control group. […] Daily food and water intake data was analysed by ANOVA.

T3 sequence (P47746 whole entry): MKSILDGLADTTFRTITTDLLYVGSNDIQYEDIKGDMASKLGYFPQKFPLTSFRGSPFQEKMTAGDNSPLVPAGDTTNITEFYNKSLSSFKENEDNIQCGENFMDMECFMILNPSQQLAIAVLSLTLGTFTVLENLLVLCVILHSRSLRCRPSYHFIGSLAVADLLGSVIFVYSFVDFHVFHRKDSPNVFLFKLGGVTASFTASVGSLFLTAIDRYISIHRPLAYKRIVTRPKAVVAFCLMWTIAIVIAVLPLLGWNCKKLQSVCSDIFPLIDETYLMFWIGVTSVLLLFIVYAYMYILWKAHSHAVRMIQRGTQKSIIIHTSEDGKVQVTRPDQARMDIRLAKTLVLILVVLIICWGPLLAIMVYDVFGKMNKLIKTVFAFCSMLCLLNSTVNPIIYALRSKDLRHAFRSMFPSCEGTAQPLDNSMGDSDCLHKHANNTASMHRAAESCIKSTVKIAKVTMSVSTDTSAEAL
T1 sequence (P21554 whole entry): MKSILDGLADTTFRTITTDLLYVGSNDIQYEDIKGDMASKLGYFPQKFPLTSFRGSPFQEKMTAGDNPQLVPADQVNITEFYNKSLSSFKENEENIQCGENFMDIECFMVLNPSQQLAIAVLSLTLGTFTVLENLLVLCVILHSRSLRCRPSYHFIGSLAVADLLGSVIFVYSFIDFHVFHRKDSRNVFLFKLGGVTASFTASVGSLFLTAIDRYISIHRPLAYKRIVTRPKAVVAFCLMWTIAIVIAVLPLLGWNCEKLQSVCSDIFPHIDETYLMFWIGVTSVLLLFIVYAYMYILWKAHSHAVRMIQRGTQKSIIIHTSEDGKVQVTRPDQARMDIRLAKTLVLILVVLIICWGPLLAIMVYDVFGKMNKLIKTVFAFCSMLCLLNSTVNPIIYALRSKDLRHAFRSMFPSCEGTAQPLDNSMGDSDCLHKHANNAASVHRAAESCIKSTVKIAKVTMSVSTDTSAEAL
T2 sequence (P34972 whole entry): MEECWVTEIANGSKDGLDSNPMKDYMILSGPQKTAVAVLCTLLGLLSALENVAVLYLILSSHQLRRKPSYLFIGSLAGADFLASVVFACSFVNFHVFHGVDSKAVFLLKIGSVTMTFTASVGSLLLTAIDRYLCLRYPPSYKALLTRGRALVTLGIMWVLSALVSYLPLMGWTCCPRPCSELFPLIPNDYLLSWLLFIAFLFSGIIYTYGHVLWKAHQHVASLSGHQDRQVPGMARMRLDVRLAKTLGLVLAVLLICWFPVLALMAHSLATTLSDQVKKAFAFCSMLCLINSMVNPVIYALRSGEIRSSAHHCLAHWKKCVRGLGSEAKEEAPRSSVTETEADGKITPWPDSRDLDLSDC
T4 sequence (P21554 whole entry): as the sequence (P21554 whole entry) above

For the molecule `NCCC(Oc1ccc(C(F)(F)F)cc1)c1ccccc1` (racemic) [norfluoxetine, 3-(4-trifluoromethylphenoxy)-3-phenylpropylamine], the “functional activity versus the CB1 receptor” value at CB1 receptor [1] was “antagonist”.
On to `CNCC[C@@H](Oc1ccc(C(F)(F)F)cc1)c1ccccc1` [(R)-fluoxetine], for which the “functional activity versus the CB1 receptor” value on CB1 receptor [1] is on record as “antagonist”.
For `CNCC[C@H](Oc1ccc(C(F)(F)F)cc1)c1ccccc1` [(S)-Fluoxetine], on CB1 receptor [1], the “functional activity versus the CB1 receptor” value is given as “inverse agonist”.
For the molecule `Fc1ccc(C(OCCCc2c[nH]cn2)c2ccc(F)cc2)cc1` [compound 7], the “inhibition of binding of [3H]CP 55,940” value is reported as “partially inhibited” on CB1 receptor [2] and “almost fully inhibited” in [5] (mouse brain membranes, 0.75 nM radioligand, FIG. 6). The “pA2 estimation using CP 55940 as an agonist” value on CB1 receptor [3] (CB1 cell line, FIG. 4) was “did not support an allosteric effect”. For the same molecule, the “antagonist versus inverse agonist activity in [35S]GTPγS binding” value at CB1 receptor [3] (response relative to basal levels, FIG. 5) was “inverse agonist activity”. In addition, the “effect on the dissociation rate of [3H]CP 55,940” value on CB1 receptor [4] is on record as “no effect”. The “effect on the 2-AG dose response (Ca2+i) of CB2 receptor bearing cells” value at CB2 receptor was “No effect”. In addition, the “inhibition of agonist (CP 55940) binding” value in [5] (mouse brain membrane, FIG. 7) was “inhibited”. Moreover, in [5] (mouse brain membrane, FIG. 7), the “inhibition of antagonist/inverse agonist (SR 141716) binding” value was “inhibited”. Besides, the “effect on the 2-AG dose response (Ca2+i) of CB1 cells” value in [6] was “right shift”.
As to `Cc1c(C(=O)NN2CCCCC2)nn(-c2ccc(Cl)cc2Cl)c1-c1ccc(Cl)cc1` [rimonabant], the “24 hour body weight change, difference versus vehicle” value in assay [7] (FIG. 10) is recorded as “No significant differences”. Further, the “daily food intake, difference versus vehicle” value in assay [7] (FIG. 15) is “No significant differences”. For the same molecule, in assay [7] (FIG. 16), the “body weight, difference versus vehicle” value is on record as “No significant differences”. The “reduction of body weight” value in assay [8] (10 mg/kg po) is given as 15%. Further, the “weight reduction as compared to vehicle, significance” value in [8] (day 29, po, Dunnett's test p<0.001, FIG. 8) is reported as “statistically significant weight reduction”.
Regarding `CC(C)CC(N(C)C)C1(c2ccc(Cl)cc2)CCC1` (stereo not drawn) [sibutramine], the “reduction of body weight” value in assay [8] (20 mg/kg po) is recorded as 2%.
